Tests used:
Assay in all cases: relative viability (nuclei count vs DMSO), 5 days (fraction); higher = more cells survive
Veliparib + Trametinib = compound: C[C@]1(c2nc3c(C(N)=O)cccc3[nH]2)CCCN1 [Veliparib] + CC(=O)Nc1cccc(-n2c(=O)n(C3CC3)c(=O)c3c(Nc4ccc(I)cc4F)n(C)c(=O)c(C)c32)c1 [Trametinib] (partner 0.02 µM)
Outline: (§1)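 Values are medians from duplicate plates. Each reflects relative viability, defined as the nuclei count of treated wells over that of vehicle wells. Lung cancer cell lines in 1536-well plates were pin-tool dosed one day after seeding with one drug alone or with a fixed anchor-drug dose plus five library-drug doses (not always all listed) in √10 steps, then fixed, stained and imaged at 4× after 5 days.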

Veliparib + Navitoclax = compound: C[C@]1(c2nc3c(C(N)=O)cccc3[nH]2)CCCN1 [Veliparib] + CC1(C)CCC(c2ccc(Cl)cc2)=C(CN2CCN(c3ccc(C(=O)NS(=O)(=O)c4ccc(N[C@H](CCN5CCOCC5)CSc5ccccc5)c(S(=O)(=O)C(F)(F)F)c4)cc3)CC2)C1 [Navitoclax] (partner 0.5 µM)
Outline: as §1

[1] = compound: COC1=CC=C(C=C1)CN2C=CC3=C2C=C(C=C3)C(=O)NO + COc1cc2c(Oc3ccc(NC(=O)C4(C(=O)Nc5ccc(F)cc5)CC4)cc3F)ccnc2cc1OCCCN1CCOCC1 [Foretinib] (partner 0.25 µM)
Outline: as §1

[2] = compound: COC1=CC=C(C=C1)CN2C=CC3=C2C=C(C=C3)C(=O)NO + O=C(CCCCCCC(=O)Nc1ccccc1)NO [Vorinostat] (partner 1 µM)
Outline: as §1

Cell Line	relative viability (Veliparib + Trametinib; first compound 0.02 µM)	relative viability (Veliparib + Trametinib; first compound 0.06325 µM)	relative viability (Veliparib + Trametinib; first compound 0.2 µM)	relative viability (Veliparib + Trametinib; first compound 0.6325 µM)	relative viability (Veliparib + Trametinib; first compound 2 µM)	relative viability (Veliparib + Navitoclax; first compound 0.02 µM)	relative viability (Veliparib + Navitoclax; first compound 0.06325 µM)	relative viability (Veliparib + Navitoclax; first compound 0.2 µM)	relative viability (Veliparib + Navitoclax; first compound 0.6325 µM)	relative viability (Veliparib + Navitoclax; first compound 2 µM)	relative viability ([1]; first compound 0.08 µM)	relative viability ([1]; first compound 0.253 µM)	relative viability ([1]; first compound 0.8 µM)	relative viability ([1]; first compound 2.53 µM)	relative viability ([1]; first compound 8 µM)	relative viability ([2]; first compound 0.08 µM)	relative viability ([2]; first compound 0.253 µM)	relative viability ([2]; first compound 0.8 µM)	relative viability ([2]; first compound 2.53 µM)	relative viability ([2]; first compound 8 µM)
NCI-H2085	0.553	0.494	0.615	0.532	0.556	1.13	0.984	1.15	0.932	1.11	0.906	0.979	1.12	0.84	0.991	0.835	0.828	0.828	0.828	0.807
NCI-H2087	0.198	0.205	0.215	0.168	0.154	0.883	0.821	0.849	0.863	0.952	0.659	1.15	1.17	1.03	0.962	0.276	0.649	1.26	0.809	0.663
NCI-H2126	0.571	0.512	0.574	0.526	0.531	0.928	0.803	0.861	0.749	0.817	1.14	1.22	1.15	1.2	1.26	0.79	0.815	0.812	0.807	0.702
NCI-H2170	0.872	1.02	1.01	0.901	0.935	0.544	0.531	0.597	0.618	0.606	0.978	0.961	0.994	1.03	1.02	0.76	0.958	0.799	0.787	0.713
NCI-H2228	0.362	0.57	0.597	0.523	0.368	1.13	0.953	1.01	0.688	1.05		1	0.933	0.857	0.609	0.496	0.869	0.639	0.431	0.826
NCI-H2347	0.294	0.254	0.26	0.364	0.288	0.794	0.775	0.724	0.695	0.729		0.527	0.991	0.775	0.575	0.502	0.611	0.736	0.796	0.559
NCI-H2405	0.627		0.64	0.578	0.745		0.734	0.847	0.833	0.69	1.01	1.06	1.07	1.09	1.02	0.782		0.984	1.03	0.896
NCI-H3122	0.181	0.186	0.214	0.208	0.233	0.982	0.998	0.998	1	1.01	0.942	1	0.913	0.993	0.947	0.752	1.08	1.01	1.17	0.982

— the supplement of paper PMC10307832
